Laboratory results: ChEMBL document CHEMBL5518235, “Identification of Novel Series of Potent and Selective Relaxin Family Peptide Receptor 1 (RXFP1) Agonists” (J Med Chem, 2024)
≈ marks a conversion by molar mass, not a printed value.

What was measured:
[1] = target: T1, Relaxin receptor 1 (Rattus norvegicus) (UniProt Q6R6I6); assay: Agonist activity at rat RXFP1 expressed in T-Rex-CHO-K1 cells assessed as stimulation of cAMP production by measuring unbound concentration incubated for 60 mins by HTRF assay; format: functional, cell-based; conditions: filed as agonist
T1 sequence (whole entry): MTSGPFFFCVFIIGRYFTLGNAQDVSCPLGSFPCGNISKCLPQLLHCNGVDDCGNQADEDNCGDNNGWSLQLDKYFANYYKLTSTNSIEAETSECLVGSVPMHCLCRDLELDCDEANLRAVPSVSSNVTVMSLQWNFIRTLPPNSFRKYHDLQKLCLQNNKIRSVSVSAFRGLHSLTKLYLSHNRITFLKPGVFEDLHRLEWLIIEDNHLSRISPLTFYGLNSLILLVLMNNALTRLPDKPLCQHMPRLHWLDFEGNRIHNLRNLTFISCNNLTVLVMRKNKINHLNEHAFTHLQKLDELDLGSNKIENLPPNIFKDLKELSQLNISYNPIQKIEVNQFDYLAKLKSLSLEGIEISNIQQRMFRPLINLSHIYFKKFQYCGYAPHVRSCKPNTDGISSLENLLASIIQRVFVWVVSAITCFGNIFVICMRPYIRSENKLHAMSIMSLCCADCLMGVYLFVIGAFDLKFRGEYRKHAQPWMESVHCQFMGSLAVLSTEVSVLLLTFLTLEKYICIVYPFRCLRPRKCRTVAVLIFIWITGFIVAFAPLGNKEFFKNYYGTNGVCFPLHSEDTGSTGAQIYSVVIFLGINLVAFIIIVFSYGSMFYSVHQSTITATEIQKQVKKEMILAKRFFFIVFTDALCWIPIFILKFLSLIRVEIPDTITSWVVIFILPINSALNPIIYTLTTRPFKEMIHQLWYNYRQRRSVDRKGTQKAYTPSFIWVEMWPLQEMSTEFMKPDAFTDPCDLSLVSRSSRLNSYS

[2] = target: Lutropin-choriogonadotropic hormone receptor (Homo sapiens, UniProt P22888); assay: Agonist activity at LSHR (unknown origin) by arrestin technology based assay; format: functional
[3] = Volume of distribution at steady state in Han Wistar rat at 0.73 micromol/kg, iv by LC-MS/MS analysis; format: ADME, organism-based; conditions: in vivo, dose 0.73 µmol/kg, read-out: Vdss
[4] = target: T1, Relaxin receptor 1 (Rattus norvegicus); assay: Agonist activity at rat RXFP1 expressed in T-Rex-CHO-K1 cells assessed as stimulation of cAMP production by measuring maximal efficacy incubated for 60 mins by HTRF assay relative to control; format: functional, cell-based; conditions: filed as agonist
[5] = Cytotoxicity against human HepG2 cells cultured as C3a spheroids assessed as reduction in cell viability; format: toxicity, cell-based
[6] = Half-life in Han Wistar rat at 0.73 micromol/kg, iv by LC-MS/MS analysis; format: ADME, organism-based; conditions: in vivo, dose 0.73 µmol/kg
[7] = Metabolic stability in Han Wistar rat hepatocytes assessed as unbound intrinsic clearance measured […] at 1 uM after 120 mins by LC-MS/MS analysis; format: ADME, cell-based, Hepatocyte; conditions: 2 h
[8] = Cytotoxicity against human HepG2 cells cultured under glucose condition assessed as reduction in cell viability; format: toxicity, cell-based
[9] = Cytotoxicity against human HepG2 cells cultured under galactose condition assessed as reduction in cell viability; format: toxicity, cell-based
[10] = Solubility of compound in phosphate buffer at pH 6.5; format: physicochemical
[11] = target: T2, Leucine-rich repeat-containing G-protein coupled receptor 4 (Homo sapiens, UniProt Q9BXB1); assay: Agonist activity at LGR4 (unknown origin) by arrestin technology based assay
T2 sequence (Q9BXB1 whole entry): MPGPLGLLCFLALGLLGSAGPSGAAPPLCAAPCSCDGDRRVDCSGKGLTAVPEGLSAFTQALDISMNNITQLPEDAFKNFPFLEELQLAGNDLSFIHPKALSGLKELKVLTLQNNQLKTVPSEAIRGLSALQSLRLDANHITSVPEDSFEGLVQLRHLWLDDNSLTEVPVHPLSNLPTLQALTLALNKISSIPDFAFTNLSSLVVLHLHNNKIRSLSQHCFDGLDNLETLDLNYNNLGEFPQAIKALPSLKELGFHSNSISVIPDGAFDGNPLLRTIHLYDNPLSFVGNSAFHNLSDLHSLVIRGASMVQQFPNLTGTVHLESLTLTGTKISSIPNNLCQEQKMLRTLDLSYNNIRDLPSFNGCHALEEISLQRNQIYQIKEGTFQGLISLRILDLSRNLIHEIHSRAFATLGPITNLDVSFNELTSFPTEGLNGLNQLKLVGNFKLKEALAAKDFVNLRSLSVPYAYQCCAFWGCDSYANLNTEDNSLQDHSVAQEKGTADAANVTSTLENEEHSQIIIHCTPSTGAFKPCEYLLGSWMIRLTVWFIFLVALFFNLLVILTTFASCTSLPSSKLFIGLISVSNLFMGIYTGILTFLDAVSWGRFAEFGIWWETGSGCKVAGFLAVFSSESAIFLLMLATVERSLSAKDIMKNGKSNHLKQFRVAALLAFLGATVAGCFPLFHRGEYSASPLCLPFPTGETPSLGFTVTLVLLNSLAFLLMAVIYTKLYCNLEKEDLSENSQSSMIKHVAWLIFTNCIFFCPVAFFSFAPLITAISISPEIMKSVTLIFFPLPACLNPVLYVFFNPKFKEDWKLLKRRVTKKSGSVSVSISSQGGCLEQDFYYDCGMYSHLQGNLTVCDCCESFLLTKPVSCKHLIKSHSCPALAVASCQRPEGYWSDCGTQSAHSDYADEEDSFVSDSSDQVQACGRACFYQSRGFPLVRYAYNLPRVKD

Lutropin-choriogonadotropic hormone receptor, sequence (P22888 whole entry): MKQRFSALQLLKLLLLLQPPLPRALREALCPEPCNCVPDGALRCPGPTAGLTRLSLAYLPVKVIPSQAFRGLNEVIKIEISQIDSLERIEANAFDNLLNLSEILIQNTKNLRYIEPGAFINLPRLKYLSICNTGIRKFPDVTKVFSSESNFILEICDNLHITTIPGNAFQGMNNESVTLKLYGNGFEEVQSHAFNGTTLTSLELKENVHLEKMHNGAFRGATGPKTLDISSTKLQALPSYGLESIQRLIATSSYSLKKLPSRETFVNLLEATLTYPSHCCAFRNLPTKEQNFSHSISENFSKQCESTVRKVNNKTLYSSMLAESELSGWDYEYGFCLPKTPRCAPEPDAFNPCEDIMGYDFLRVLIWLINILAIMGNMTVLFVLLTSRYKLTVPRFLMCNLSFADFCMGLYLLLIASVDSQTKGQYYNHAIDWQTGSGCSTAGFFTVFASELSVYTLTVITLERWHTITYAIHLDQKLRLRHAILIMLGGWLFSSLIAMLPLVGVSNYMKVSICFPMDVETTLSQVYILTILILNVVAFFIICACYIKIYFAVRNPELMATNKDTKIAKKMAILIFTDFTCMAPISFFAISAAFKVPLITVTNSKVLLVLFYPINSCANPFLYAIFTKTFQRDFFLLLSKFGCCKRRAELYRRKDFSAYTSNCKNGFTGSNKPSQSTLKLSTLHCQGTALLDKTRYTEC

fEC50 [1]: 17 nM | EC50 [2]: 46 µM | Vd [3]: 2.3 L/kg | Emax [4]: 139% | half-life [6]: 2.9 h | CL free [7]: 2.4 µL/min | solubility [10]: 0.13 µM (≈ 0.0887 µg/mL) | EC50 [11]: 16 µM
Structure (SMILES): COc1cc(F)c(O[C@H]2CC[C@@](C)(C(=O)O)CC2)cc1C(=O)N[C@@H]1[C@H]2CC[C@H](C2)[C@@H]1C(=O)Nc1ccc(F)c(S(F)(F)(F)(F)F)c1
IC50 [5]: 17 µM | IC50 [8]: 68 µM | IC50 [9]: 37 µM
